According to paper PMC9127750, “Structure-based design of CDC42 effector interaction inhibitors for the treatment of cancer” (Cell reports, 2022):
Values joined by “and” are separate entries in the source; they are usually repeats but may differ in a detail not shown here. Equal entries are not always repeated.

Tested on: WM3248 melanoma cells, 486 antibodies
Test: Reverse phase protein arrays (RPPA)
Type: cell-based, Human
Excerpt: Pellets were snap frozen in liquid nitrogen and shipped to MD Anderson Cancer Center core RPPA facility for RPPA analysis (Table S5). Three biological replicates for each sample were generated.
Nomenclatures on the RPPA heatmaps: name_of_antibody.species_of_antibody.status_of_antibody. V - antibody validated; C - validation of antibody in progress; Q - antibody nonspecific; E – under evaluation; antibodies raised in M - mouse, G - goat, R - rabbit, or T - rat.

[1] = level 10 normalized to 0, mean of 3
[2] = level 10 normalized to 0, single replicates

Compound: CN(C)c1cccc(Nc2cc(-c3ccccc3)nc(C3CCNCC3)n2)c1 [ARN22089, N1,N1-dimethyl-N3-(6-phenyl-2-(piperidin-4-yl)pyrimidin-4-yl)benzene-1,3-diamine]
- XIAP.R.C Norm_10 Average [1]: 0.978
- XPA.M.V Norm_10 Average [1]: 0.978
- XPF.R.C Norm_10 Average [1]: 0.977
- YAP.R.C Norm_10 Average [1]: 1.029
- YB1_pS102.R.V Norm_10 Average [1]: 0.937
- YES1.R.V Norm_10 Average [1]: 1.017
- YTHDF3.R.C Norm_10 Average [1]: 1.101
- ZAP.70.R.V Norm_10 Average [1]: 0.957
- ZEB1.R.V Norm_10 Average [1]: 0.964
- TSC1.R.C Norm_10_1 to Norm_10_3 [2]: 0.905 and 0.842
- TTF1.R.V Norm_10_1 to Norm_10_3 [2]: 1.022 and 0.970 and 1.241
- TUFM.R.V Norm_10_1 to Norm_10_3 [2]: 0.423 and 1.882 and 1.360
- Tuberin.R.V Norm_10_1 to Norm_10_3 [2]: 1.169 and 0.526 and 0.811
- Tuberin_pT1462.R.V Norm_10_1 to Norm_10_3 [2]: 1.492 and 0.717 and 0.984
- Twist.M.C Norm_10_1 to Norm_10_3 [2]: 1.114 and 1.030
- Tyro3.R.V Norm_10_1 to Norm_10_3 [2]: 1.080 and 1.777 and 1.302
- U.Histone.H2B.R.C Norm_10_1 to Norm_10_3 [2]: 0.871 and 0.726
- UBAC1.R.V Norm_10_1 to Norm_10_3 [2]: 0.932 and 1.030 and 1.078
- UBQLN4.M.C Norm_10_1 to Norm_10_3 [2]: 0.984 and 0.918 and 0.980
- UGT1A.M.V Norm_10_1 to Norm_10_3 [2]: 1.017 and 1.128 and 1.006
- ULK1_pS757.R.C Norm_10_1 to Norm_10_3 [2]: 1.125 and 0.823 and 0.899
- UQCRC2.M.C Norm_10_1 to Norm_10_3 [2]: 0.945 and 1.144 and 1.246
- UVRAG.R.C Norm_10_1 to Norm_10_3 [2]: 1.050 and 0.851 and 0.904
- VASP.R.V Norm_10_1 to Norm_10_3 [2]: 0.815 and 0.894
- VAV1.R.C Norm_10_1 to Norm_10_3 [2]: 1.035 and 0.844 and 0.890
- VEGFR.2.R.V Norm_10_1 to Norm_10_3 [2]: 0.901 and 0.958 and 1.012
- VEGFR.2_pY1175.R.C Norm_10_1 to Norm_10_3 [2]: 0.930 and 0.993
- VHL.EPPK1.M.C Norm_10_1 to Norm_10_3 [2]: 0.587 and 1.522 and 0.982
- VHL.R.C Norm_10_1 to Norm_10_3 [2]: 0.900 and 0.987
- Vinculin.M.V Norm_10_1 to Norm_10_3 [2]: 0.829 and 1.085 and 1.051
- WIPI1.R.C Norm_10_1 to Norm_10_3 [2]: 1.210 and 1.510 and 1.234
- WIPI2.R.C Norm_10_1 to Norm_10_3 [2]: 1.209 and 0.707 and 0.915
- WTAP.R.V Norm_10_1 to Norm_10_3 [2]: 0.900 and 1.764 and 1.008
- Wee1.R.C Norm_10_1 to Norm_10_3 [2]: 0.851 and 0.833 and 1.061
- Wee1_pS642.R.C Norm_10_1 to Norm_10_3 [2]: 0.901 and 0.776 and 1.023
- XBP.1.G.C Norm_10_1 to Norm_10_3 [2]: 0.989 and 1.187 and 1.403
- XIAP.R.C Norm_10_1 to Norm_10_3 [2]: 1.022 and 1.000
- XPA.M.V Norm_10_1 to Norm_10_3 [2]: 1.064
- XPF.R.C Norm_10_1 to Norm_10_3 [2]: 0.948 and 0.944
- XRCC1.R.C Norm_10_1 to Norm_10_3 [2]: 0.931 and 1.213
- YAP.R.C Norm_10_1 to Norm_10_3 [2]: 0.955 and 1.252 and 0.879
- YAP_pS127.R.V Norm_10_1 to Norm_10_3 [2]: 0.913 and 1.139 and 0.796
- YB1_pS102.R.V Norm_10_1 to Norm_10_3 [2]: 0.840 and 1.032
- YES1.R.V Norm_10_1 to Norm_10_3 [2]: 1.000 and 0.982
- YTHDF2.R.V Norm_10_1 to Norm_10_3 [2]: 1.206 and 1.258
- YTHDF3.R.C Norm_10_1 to Norm_10_3 [2]: 1.009 and 1.186 and 1.108
- ZAP.70.R.V Norm_10_1 to Norm_10_3 [2]: 1.012 and 0.977 and 0.883
- ZEB1.R.V Norm_10_1 to Norm_10_3 [2]: 0.854 and 1.114 and 0.924
- HLA.DQA1.R.V Norm_10 Average (level 10 vs 0): 0.993
- HLA.DR.DP.DQ.DX.R.C Norm_10 Average (level 10 vs 0): 1.057
- HMHA1.R.V Norm_10 Average (level 10 vs 0): 0.922
- HNRNPK.R.V Norm_10 Average (level 10 vs 0): 1.030
- HSP27.M.C Norm_10 Average (level 10 vs 0): 0.958
- HSP27_pS82.R.V Norm_10 Average (level 10 vs 0): 0.916
- HSP60.R.V Norm_10 Average (level 10 vs 0): 0.926
- HSP70.R.C Norm_10 Average (level 10 vs 0): 0.973
- Hexokinase.I.R.C Norm_10 Average (level 10 vs 0): 1.225
- Hexokinase.II.R.V Norm_10 Average (level 10 vs 0): 1.128
- Hif.1αR.C Norm_10 Average (level 10 vs 0): 1.156
- Histone.H3.R.V Norm_10 Average (level 10 vs 0): 0.957
- IDO.R.C Norm_10 Average (level 10 vs 0): 0.957
- IGF1R_pY1135_Y1136.R.V Norm_10 Average (level 10 vs 0): 0.918
- IGFBP2.R.V Norm_10 Average (level 10 vs 0): 0.935
- IGFBP3.M.V Norm_10 Average (level 10 vs 0): 0.971
- IGFRb.R.C Norm_10 Average (level 10 vs 0): 0.953
- IL.6.R.C Norm_10 Average (level 10 vs 0): 0.924
- IMP3.R.C Norm_10 Average (level 10 vs 0): 0.953
- INPP4b.R.C Norm_10 Average (level 10 vs 0): 1.029
- IR.b.R.C Norm_10 Average (level 10 vs 0): 0.981
- IRF.1.R.V Norm_10 Average (level 10 vs 0): 0.874
- IRF.3.R.V Norm_10 Average (level 10 vs 0): 0.967
- IRS1.R.V Norm_10 Average (level 10 vs 0): 0.929
- IRS2.R.C Norm_10 Average (level 10 vs 0): 1.033
- JAB1.M.C Norm_10 Average (level 10 vs 0): 1.009
- JNK2.R.V Norm_10 Average (level 10 vs 0): 2.307
- JNK_pT183_Y185.R.C Norm_10 Average (level 10 vs 0): 0.955
- Jagged1.R.V Norm_10 Average (level 10 vs 0): 0.936
- Jak2.R.V Norm_10 Average (level 10 vs 0): 0.959
- KAP1.R.V Norm_10 Average (level 10 vs 0): 1.103
- KEAP1.R.V Norm_10 Average (level 10 vs 0): 1.017
- LAD1.R.V Norm_10 Average (level 10 vs 0): 0.908
- LC3A.B.R.C Norm_10 Average (level 10 vs 0): 1.064
